Here are results for 19 molecules from patent publication US20120225061A1, “TETRASUBSTITUTED CYCLOHEXYL COMPOUNDS AS KINASE INHIBITORS” (priority 2011, published 2012).

A value given as a limit tells only on which side of the number the result lay.

The target of one test is Pim1 kinase (Homo sapiens, UniProt P11309). In words: Pim1 AlphaScreen assay (high ATP).
A further test has as its target Pim3 kinase (Homo sapiens, UniProt Q86V86). Kind of test: Pim3 AlphaScreen assay (high ATP). (In Alpha technology, singlet oxygen from a donor bead excites a nearby acceptor bead.)
A further test addresses Pim2 kinase (Homo sapiens, UniProt Q9P1W9). In words: Pim2 AlphaScreen assay (high ATP).
The test system of test [1] is KMS11 (human myeloma cell line). In words: Cell proliferation assay (CellTiter-Glo) in KMS11 cells. In kind it is cell-based. Conditions: KMS-11, 72 h, Table 5, 3 days, read-out: KMS11-luc EC50. Here is the method:
KMS11 (human myeloma cell line), were cultured in IMDM supplemented with 10% FBS, sodium pyruvate and antibiotics. Cells were plated in the same medium at a density of 2000 cells per well into 96 well tissue culture plates, with outside wells vacant, on the day of assay.
Test compounds supplied in DMSO were diluted into DMSO at 500 times the desired final concentrations before dilution into culture media to 2 times final concentrations.
After 3 days plates were equilibrated to room temperature and equal volume of CellTiter-Glow Reagent (Promega) was added to the culture wells. The plates were agitated briefly and luminescent signal was measured with luminometer.
In general terms: Cellular ATP, detected with luciferase, serves as a proxy for viable cell number.

Chain of Pim1 kinase (P11309 whole entry): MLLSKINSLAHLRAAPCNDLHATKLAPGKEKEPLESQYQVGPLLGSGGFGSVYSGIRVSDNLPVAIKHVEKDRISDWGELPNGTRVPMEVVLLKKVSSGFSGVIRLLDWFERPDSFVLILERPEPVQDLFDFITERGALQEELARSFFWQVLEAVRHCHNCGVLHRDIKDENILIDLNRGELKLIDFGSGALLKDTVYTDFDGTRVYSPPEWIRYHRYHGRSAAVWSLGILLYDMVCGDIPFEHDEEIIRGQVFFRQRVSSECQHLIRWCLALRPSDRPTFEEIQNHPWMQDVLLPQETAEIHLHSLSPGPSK
Chain of Pim2 kinase (Q9P1W9 whole entry): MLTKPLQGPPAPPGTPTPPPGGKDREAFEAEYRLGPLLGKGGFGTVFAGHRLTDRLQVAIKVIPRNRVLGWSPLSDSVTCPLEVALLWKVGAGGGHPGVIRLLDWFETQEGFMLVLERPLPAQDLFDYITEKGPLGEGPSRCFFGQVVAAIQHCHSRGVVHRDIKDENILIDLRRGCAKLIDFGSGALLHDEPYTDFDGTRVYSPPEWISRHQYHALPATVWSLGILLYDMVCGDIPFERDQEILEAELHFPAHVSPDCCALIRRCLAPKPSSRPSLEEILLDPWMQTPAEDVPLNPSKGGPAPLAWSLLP
Method for Pim2 kinase: (§1) The activity of Pim 1, Pim 2, & Pim 3 is measured using a homogeneous bead based system quantifying the amount of phosphorylated peptide substrate resulting from kinase-catalyzed phosphoryl transfer to a peptide substrate. Compounds to be tested are dissolved in 100% DMSO and directly distributed to a white 384-well plate at 0.25 μl per well. […] This is followed by the addition of 5 μl/well of Pim 1, Pim 2 or Pim 3 kinase in assay buffer (concentrations described below). Final assay concentrations (described below) are in 2.5% DMSO. The reactions are performed for ˜2 hours, then stopped by the addition of 10 μl of 0.75 μg/ml anti-phospho Ser/Thr antibody (Cell Signaling), 10 μg/ml Protein A AlphaScreen beads (Perkin Elmer), and 10 μg/ml streptavidin coated AlphaScreen beads in stop/detection buffer (50 mM EDTA, 95 mM Tris, pH=7.5, 0.01% Tween-20). The stopped reactions are incubated overnight in the dark. The phosphorylated peptide is detected via an oxygen anion initiated chemiluminescence/fluorescence cascade using the Envision plate reader (Perkin Elmer).
Method for Pim3 kinase: as §1

In general, IC50 refers to the concentration that gives 50% inhibition. High values mean lower potency, low ones higher potency. As usually defined, the EC50 is the concentration needed to bring the measured effect to its halfway point. As for `CC1C[C@@H](c2ccncc2NC(=O)c2ccc(F)c(-c3c(F)cc(Oc4ccncc4)cc3F)n2)C[C@@H](O)[C@]1(C)O` (stereo in doubt) [Example 116, 6-(2,6-difluoro-4-(pyridin-4-yloxy)phenyl)-N-(4-((1R,3R,4R,5S)-3,4-dihydroxy-4,5-dimethylcyclohexyl)pyridin-3-yl)-5-fluoropicolinamide], the figures for the IC50 at Pim1 kinase, against Pim3 kinase and at Pim2 kinase were 2.65 nM, 189 nM and 672 nM, respectively. Also, the EC50 in test [1] was greater than 10000 nM.

Regarding `C[C@H]1C[C@@H](c2ccncc2NC(=O)c2ccc(F)c(-c3c(F)cc(C4CCS(=O)(=O)CC4)cc3F)n2)C[C@@H](O)C1(C)O` (stereo in doubt) [Example 120, N-(4-((1R,3R,4S,5S)-3,4-dihydroxy-4,5-dimethylcyclohexyl)pyridin-3-yl)-6-(4-(1,1-dioxidotetrahydro-2H-thiopyran-4-yl)-2,6-difluorophenyl)-5-fluoropicolinamide], the results for the IC50 at Pim1 kinase, against Pim3 kinase and against Pim2 kinase were 0.26 nM, 31.5 nM and 48.7 nM, respectively. Also, in test [1], the EC50 is 723 nM.

On to `CCc1cc(F)c(-c2nc(C(=O)Nc3cnccc3[C@H]3C[C@@H](N)[C@](C)(O)[C@@H](C)C3)ccc2F)c(F)c1` [Example 2, N-(4-((1R,3R,4R,5S)-3-amino-4-hydroxy-4,5-dimethylcyclohexyl)pyridin-3-yl)-6-(4-ethyl-2,6-difluorophenyl)-5-fluoropicolinamide], for which the values for the IC50 on Pim1 kinase, on Pim3 kinase and at Pim2 kinase were 0.05 nM, 1.33 nM and 2.68 nM, respectively. Also, the EC50 in test [1] was 59 nM.

For the molecule `C[C@H]1C[C@@H](c2ccncc2NC(=O)c2ccc(F)c(-c3c(F)ccc(OCCO)c3F)n2)C[C@@H](N)[C@]1(C)O` [Example 3, N-(4-((1R,3R,4R,5S)-3-amino-4-hydroxy-4,5-dimethylcyclohexyl)pyridin-3-yl)-6-(2,6-difluoro-3-(2-hydroxyethoxy)phenyl)-5-fluoropicolinamide], the IC50 at Pim1 kinase worked out at 0.1 nM; against Pim3 kinase it was 1.94 nM; against Pim2 kinase, 10.6 nM. The EC50 in test [1] worked out at 126 nM.

With `COCc1cc(F)c(-c2nc(C(=O)Nc3cnccc3[C@H]3C[C@@H](N)[C@](C)(O)[C@@H](C)C3)ccc2F)c(F)c1` [Example 4, N-(4-((1R,3R,4R,5S)-3-amino-4-hydroxy-4,5-dimethylcyclohexyl)pyridin-3-yl)-6-(2,6-difluoro-4-(methoxymethyl)phenyl)-5-fluoropicolinamide], the IC50 against Pim1 kinase turned out to be 0.09 nM; at Pim3 kinase, 2.43 nM; against Pim2 kinase, 4.33 nM. The EC50 in test [1] was 34 nM.

As to `COCCOc1ccc(F)c(-c2nc(C(=O)Nc3cnccc3[C@H]3C[C@@H](N)[C@](C)(O)[C@@H](C)C3)ccc2F)c1F` [Example 6, N-(4-((1R,3R,4R,5S)-3-amino-4-hydroxy-4,5-dimethylcyclohexyl)pyridin-3-yl)-6-(2,6-difluoro-3-(2-methoxyethoxy)phenyl)-5-fluoropicolinamide], the IC50 against Pim1 kinase was found to be 0.14 nM; against Pim3 kinase, 2.4 nM; at Pim2 kinase, 24.9 nM. Moreover, the 50% effective concentration (EC50) in test [1] was determined as 202 nM.

As for `COCCOc1cc(F)c(-c2nc(C(=O)Nc3cnccc3[C@H]3C[C@@H](N)[C@](C)(O)[C@@H](C)C3)ccc2F)c(F)c1` [Example 7, N-(4-((1R,3R,4R,5S)-3-amino-4-hydroxy-4,5-dimethylcyclohexyl)pyridin-3-yl)-6-(2,6-difluoro-4-(2-methoxyethoxy)phenyl)-5-fluoropicolinamide], the IC50 at Pim1 kinase stood at 0.08 nM; against Pim3 kinase it was 2.09 nM; against Pim2 kinase, 6.31 nM. In addition, the EC50 in test [1] worked out at 57 nM.

In the case of `CSc1cc(F)c(-c2nc(C(=O)Nc3cnccc3[C@H]3C[C@@H](N)[C@](C)(O)[C@@H](C)C3)ccc2F)c(F)c1` [Example 8, N-(4-((1R,3R,4R,5S)-3-amino-4-hydroxy-4,5-dimethylcyclohexyl)pyridin-3-yl)-6-(2,6-difluoro-4-(methylthio)phenyl)-5-fluoropicolinamide], the IC50 against Pim1 kinase was found to be 0.08 nM; on Pim3 kinase it was 2.04 nM; against Pim2 kinase, 6.98 nM. The EC50 in test [1] worked out at 234 nM.

Consider `C[C@H]1C[C@@H](c2ccncc2NC(=O)c2ccc(F)c(-c3c(F)cc(S(C)(=O)=O)cc3F)n2)C[C@@H](O)[C@]1(C)O` [Example 9, 6-(2,6-difluoro-4-(methylsulfonyl)phenyl)-N-(4-((1R,3R,4R,5S)-3,4-dihydroxy-4,5-dimethylcyclohexyl)pyridin-3-yl)-5-fluoropicolinamide], for which the results for the IC50 at Pim1 kinase, at Pim3 kinase and at Pim2 kinase were 8.54 nM, 1620 nM and 1010 nM, respectively. Also, the 50% effective concentration (EC50) in test [1] was found to be 4700 nM.

Consider `C[C@@H]1C[C@H](c2ccncc2NC(=O)c2ccc(F)c(-c3c(F)cc(S(C)(=O)=O)cc3F)n2)C[C@H](O)[C@@]1(C)O` [Example 10, 6-(2,6-difluoro-4-(methylsulfonyl)phenyl)-N-(4-((1S,3S,4S,5R)-3,4-dihydroxy-4,5-dimethylcyclohexyl)pyridin-3-yl)-5-fluoropicolinamide], for which the IC50 worked out at 14.6 nM against Pim1 kinase, 4150 nM against Pim3 kinase and 7110 nM against Pim2 kinase. Further, the EC50 in test [1] is greater than 10000 nM.

On to `Cc1cc(F)c(-c2nc(C(=O)Nc3cnccc3[C@H]3C[C@@H](N)[C@](C)(O)[C@@H](C)C3)ccc2F)c(F)c1` [Example 13, N-(4-((1R,3R,4R,5S)-3-amino-4-hydroxy-4,5-dimethylcyclohexyl)pyridin-3-yl)-6-(2,6-difluoro-4-methylphenyl)-5-fluoropicolinamide], for which the half-maximal inhibitory concentration (IC50) against Pim1 kinase worked out at 0.07 nM; against Pim3 kinase, 1.16 nM; against Pim2 kinase, 4.33 nM. Also, the EC50 in test [1] was 42 nM.

Turning to `Cc1cc(F)c(-c2nc(C(=O)Nc3cnccc3[C@H]3C[C@@H](C)[C@](C)(O)[C@@H](N)C3)ccc2F)c(F)c1` [Example 14, N-(4-((1S,3S,4S,5R)-3-amino-4-hydroxy-4,5-dimethyl-cyclohexyl)pyridin-3-yl)-6-(2,6-difluoro-4-methylphenyl)-5-fluoropicolinamide], the IC50 on Pim1 kinase worked out at 13.7 nM; at Pim3 kinase, 231 nM; against Pim2 kinase, 776 nM. Besides, the EC50 in test [1] worked out at 5040 nM.

`COc1cc(F)c(-c2nc(C(=O)Nc3cnccc3[C@H]3C[C@@H](N)[C@](C)(O)[C@@H](C)C3)ccc2F)c(F)c1` [Example 15, N-(4-((1R,3R,4R,5S)-3-amino-4-hydroxy-4,5-dimethylcyclohexyl)pyridin-3-yl)-6-(2,6-difluoro-4-methoxyphenyl)-5-fluoropicolinamide]: the IC50 at Pim1 kinase came out at 0.08 nM; at Pim3 kinase, 1.04 nM; against Pim2 kinase it was 6 nM.

On to `COc1cc(F)c(-c2nc(C(=O)Nc3cnccc3[C@H]3C[C@@H](C)[C@](C)(O)[C@@H](N)C3)ccc2F)c(F)c1` [Example 16, N-(4-((1S,3S,4S,5R)-3-amino-4-hydroxy-4,5-dimethylcyclohexyl)pyridin-3-yl)-6-(2,6-difluoro-4-methoxyphenyl)-5-fluoropicolinamide], for which the IC50 was found to be 4.25 nM on Pim1 kinase, 73 nM at Pim3 kinase and 780 nM against Pim2 kinase.

With `C[C@@H]1C[C@H](c2ccncc2NC(=O)c2nc(-c3c(F)cccc3F)ccc2N)C[C@H](O)[C@]1(O)CF` [Example 17, 3-amino-6-(2,6-difluorophenyl)-N-(4-((1S,3S,4S,5R)-4-(fluoromethyl)-3,4-dihydroxy-5-methylcyclohexyl)pyridin-3-yl) picolinamide], the values for the IC50 against Pim1 kinase, against Pim3 kinase and against Pim2 kinase were 28.4 nM, 646 nM and 4650 nM, respectively.

On to `C[C@H]1C[C@@H](c2ccncc2NC(=O)c2nc(-c3c(F)cccc3F)c(F)cc2N)C[C@@H](O)[C@@]1(O)CF` [Example 23, 3-amino-6-(2,6-difluorophenyl)-5-fluoro-N-(4-((1R,3R,4R,5S)-4-(fluoromethyl)-3,4-dihydroxy-5-methylcyclohexyl)pyridin-3-yl) picolinamide], for which the results for the IC50 at Pim1 kinase, against Pim3 kinase and against Pim2 kinase were 0.58 nM, 10.1 nM and 28.6 nM, respectively.

In the case of `C[C@@H]1C[C@H](c2ccncc2NC(=O)c2nc(-c3c(F)cccc3F)c(F)cc2N)C[C@H](O)[C@]1(O)CF` [Example 24, 3-amino-6-(2,6-difluorophenyl)-5-fluoro-N-(4-((1S,3S,4S,5R)-4-(fluoromethyl)-3,4-dihydroxy-5-methylcyclohexyl)pyridin-3-yl) picolinamide], the IC50 against Pim1 kinase came to 22.1 nM; against Pim3 kinase it was 786 nM; against Pim2 kinase, 4940 nM.

Regarding `C[C@H]1C[C@@H](c2ccncc2NC(=O)c2nc(-c3cccc(OC(F)F)n3)ccc2N)C[C@@H](O)[C@]1(C)O` [Example 123, 5-amino-6′-(difluoromethoxy)-N-(4-((1R,3R,4R,5S)-3,4-dihydroxy-4,5-dimethylcyclohexyl)pyridin-3-yl)-2,2′-bipyridine-6-carboxamide], the IC50 is 35.2 nM at Pim1 kinase, 454 nM against Pim3 kinase and 20200 nM against Pim2 kinase.

On to `C[C@H]1C[C@@H](c2ccncc2NC(=O)c2nc(-c3cccc(OCC(F)(F)F)n3)ccc2N)C[C@@H](O)[C@]1(C)O` [Example 124, 5-amino-N-(4-((1R,3R,4R,5S)-3,4-dihydroxy-4,5-dimethylcyclohexyl)pyridin-3-yl)-6′-(2,2,2-trifluoroethoxy)-2,2′-bipyridine-6-carboxamide], for which the IC50 against Pim1 kinase is 21.7 nM; at Pim3 kinase, 736 nM; at Pim2 kinase, greater than 25000 nM.
